Assay results taken from US9656962B2, “Ring-contracted morphinans and the use thereof” (Purdue Pharma L.P., priority 2013, dated 2017).

Columns and labels:
Format in all cases: biochemical
[1] = molecular target: κ-opioid receptor (Homo sapiens (Human), UniProt P41145); assay: κ-opioid receptor [35S]GTPγS functional assay, U-2 OS cells (Table 5); conditions: for Emax: relative to U69,593; for EC50: κ GTP
Description: κ-Opioid Receptor Functional Assay Procedures: Functional [^35S]GTPγS binding assays were conducted as follows. κ opioid receptor membrane solution was prepared by sequentially adding final concentrations of 0.026 μg/μl κ membrane protein (in-house), 10 μg/mL saponin, 3 μM GDP and 0.20 nM [^35S]GTPγS to binding buffer (100 mM NaCl, 10 mM MgCl2, 20 mM HEPES, pH 7.4) on ice. The prepared membrane solution (190 μl/well) was transferred to 96-shallow well polypropylene plates containing 10 μl of 20× concentrated stock solutions of agonist prepared in DMSO. Plates were incubated for 30 min at a temperature of about 25° C. with shaking. Reactions were terminated by rapid filtration onto 96-well Unifilter GF/B filter plates (Perkin Elmer, Shelton, Conn.) using a 96-well tissue harvester (Packard) and followed by three filtration washes with 200 μl ice-cold binding buffer (10 mM NaH2PO4, 10 mM Na2HPO4, pH 7.4). Filter plates were subsequently dried at 50° C. for 2-3 hours. Fifty μl/well scintillation cocktail (Perkin Elmer, Shelton, Conn.) was added and plates were counted in a Packard Top-Count for 1 min/well.
κ GTP Emax (%) is the maximal effect elicited by a compound relative to the effect elicited by U69,593.
The following TABLE 5 provides results on the activity response of certain Compounds of the Invention at the μ- and κ-opioid receptors determined as described above using U-2 OS cells.

[2] = molecular target: T1, μ-opioid receptor (Homo sapiens (Human), UniProt P35372); assay: μ-opioid receptor [35S]GTPγS functional assay, U-2 OS cells (Table 5); conditions: for Emax: relative to DAMGO; for EC50: μ GTP
Description: (§1) μ-Opioid Receptor Functional Assay Procedures: [^35S]GTPγS functional assays were conducted using freshly thawed μ-receptor membranes prepared in-house from a cell line expressing recombinant μ opioid receptor in a HEK-293, CHO or U-2 OS cell background, or purchased from a commercial source (Perkin Elmer, Shelton, Conn.; or DiscovRx, Fremont, Calif.). Assay reactions were prepared by sequentially adding the following reagents to binding buffer (100 mM NaCl, 10 mM MgCl2, 20 mM HEPES, pH 7.4) on ice (final concentrations indicated): membrane protein (0.026 mg/mL), saponin ([…]), GDP ([…]) and [^35S]GTPγS (0.20 nM; Perkin Elmer, Shelton, Conn.). The prepared membrane solution (190 μl/well) was transferred to 96-shallow well polypropylene plates containing 10 μl of 20× concentrated stock solutions of the agonist [D-Ala^2, N-methyl-Phe^4 Gly-ol^5]-enkephalin (DAMGO) prepared in dimethyl sulfoxide (DMSO). Plates were incubated for 30 min at about 25° C. with shaking Reactions were terminated by rapid filtration onto 96-well Unifilter GF/B filter plates (Perkin Elmer, Shelton, Conn.) using a 96-well tissue harvester (Perkin Elmer, Shelton, Conn.) followed by three filtration washes with 200 μl of ice-cold wash buffer (10 mM NaH2PO4, 10 mM Na2HPO4, pH 7.4). Filter plates were subsequently dried at 50° C. for 2-3 hours. BetaScint scintillation cocktail (Perkin Elmer, Shelton, Conn.) was added (50 μl/well) and plates were counted using a Packard Top-Count for 1 min/well. Data were analyzed using the sigmoidal dose-response curve fitting functions in GraphPad PRISM v. 3.0, or an in-house function for non-linear, sigmoidal dose-response curve-fitting. [^35S]GTPγS functional assays can also be conducted using freshly thawed μ-receptor membranes prepared from a cell line expressing recombinant μ opioid receptor in a CHO-K1 cell background.
(§2) μ GTP Emax (%) is the maximal effect elicited by a compound relative to the effect elicited by DAMGO, a standard μ agonist.

[3] = molecular target: T1, μ-opioid receptor; assay: μ-opioid receptor [35S]GTPγS functional assay, HEK-293 or CHO cells (Table 4); conditions: for Emax: relative to DAMGO; for EC50: μ GTP
Description: as §1, §2
In TABLE 4, activity response of certain Compounds of the Invention to the μ- and κ-opioid receptors was determined as described above for functional assays using HEK-293 or CHO cells.

NC(=O)CNC(=O)[C@@H]1C[C@]23CCN(CC4CC4)[C@H](Cc4ccc(O)cc42)[C@]3(O)C1 [Compound 64, (2R,3aS,4R,9bS)-N-(2-amino-2-oxoethyl)-12-(cyclopropylmethyl)-3a,8-dihydroxy-1,2,3,3a,4,5-hexahydro-4,9b-(epiminoethano)cyclopenta[a]naphthalene-2-carboxamide]
Emax [1]: 101 ± 4.98%
EC50 [1]: 3.51 ± 0.16 nM
Emax [2]: 48.7 ± 0.33%
EC50 [2]: 6.96 ± 0.27 nM
Emax [3]: 3.5%
EC50 ([3]; bound given in μM): > 20 µM

COc1ccc2c(c1)[C@]13CCN(CC4CC4)[C@H](C2)[C@]1(O)C[C@H](C#N)C3 [Compound 25, (2R,3aS,4R,9bS)-12-(cyclopropylmethyl)-3a-hydroxy-8-methoxy-1,2,3,3a,4,5-hexahydro-4,9b-(epiminoethano)-cyclopenta[a]naphthalene-2-carbonitrile]
Emax [1]: 107 ± 4.16%
EC50 [1]: 234 ± 28.5 nM
Emax [2]: 54.3 ± 4.1%
EC50 [2]: 228 ± 25.4 nM
Emax [3]: 12 ± 2.08%
EC50 [3]: 0.616 ± 0.0409 µM

O=C(NCc1ccc(F)cc1)[C@@H]1C[C@]23CCN(CC4CC4)[C@H](Cc4ccc(O)cc42)[C@]3(O)C1 [Compound 48, (2R,3aS,4R,9bS)-12-(cyclopropylmethyl)-N-(4-fluorobenzyl)-3a,8-dihydroxy-1,2,3,3a,4,5-hexahydro-4,9b-(epimino-ethano)cyclopenta[a]naphthalene-2-carboxamide]
Emax [1]: 106 ± 2.33%
EC50 [1]: 1.46 ± 0.29 nM
Emax [2]: 40 ± 1.53%
EC50 [2]: 3.12 ± 0.27 nM
Emax [3]: -1%
EC50 ([3]; bound given in μM): > 20 µM

CN1CC[C@]23C[C@@H](C(N)=O)C[C@@]2(O)[C@H]1Cc1ccc(O)cc13 [Compound 77, (2R,3aS,4R,9bS)-3a,8-dihydroxy-12-methyl-1,2,3,3a,4,5-hexahydro-4,9b-(epiminoethano)cyclopenta[a]naphthalene-2-carboxamide]
Emax [1]: 65.3 ± 6.44%
EC50 [1]: 1150 ± 221 nM
Emax [2]: 85 ± 2.52%
EC50 [2]: 389 ± 74 nM
Emax [3]: 19.6 ± 5.65%
EC50 [3]: 0.58 ± 0.131 µM

O=C(NCc1ccc(Cl)cc1)[C@@H]1C[C@]23CCN(CC4CC4)[C@H](Cc4ccc(O)cc42)[C@]3(O)C1 [Compound 43, (2R,3aS,4R,9bS)-N-(4-chlorobenzyl)-12-(cyclopropylmethyl)-3a,8-dihydroxy-1,2,3,3a,4,5-hexahydro-4,9b-(epimino-ethano)cyclopenta[a]naphthalene-2-carboxamide]
Emax [1]: 102 ± 5.9%
EC50 [1]: 0.67 ± 0.02 nM
Emax [2]: 41.3 ± 2.03%
EC50 [2]: 4.55 ± 0.14 nM
Emax [3]: 11 ± 0.82%
EC50 [3]: 0.00835 ± 0.0018 µM

O=C([C@H]1C[C@]23CCN(CC4CC4)[C@H](Cc4ccc(O)cc42)[C@]3(O)C1)N1CCS(=O)(=O)CC1 [Compound 94, ((2S,3aS,4R,9bS)-12-(cyclopropylmethyl)-3a,8-dihydroxy-1,2,3,3a,4,5-hexahydro-4,9b-(epiminoethano)cyclopenta-[a]naphthalen-2-yl)(1,1-dioxido-thiomorpholino)methanone]
Emax [3]: 10.6 ± 3.41%
EC50 ([3]; bound given in μM): > 20 µM

O=C(NCc1ccc(O)cc1)[C@@H]1C[C@]23CCN(CC4CC4)[C@H](Cc4ccc(O)cc42)[C@]3(O)C1 [Compound 39, (2R,3aS,4R,9bS)-12-(cyclopropylmethyl)-3a,8-dihydroxy-N-(4-hydroxybenzyl)-1,2,3,3a,4,5-hexahydro-4,9b-(epimino-ethano)cyclopenta[a]naphthalene-2-carboxamide]
Emax [1]: 91.7 ± 1.86%
EC50 [1]: 1.85 ± 0.097 nM
Emax [2]: 42 ± 1%
EC50 [2]: 11.1 ± 0.28 nM
Emax [3]: 15 ± 1.73%
EC50 [3]: 0.0375 ± 0.0126 µM

O=C(NCc1cccnc1)[C@@H]1C[C@]23CCN(CC4CC4)[C@H](Cc4ccc(O)cc42)[C@]3(O)C1 [Compound 89, (2R,3aS,4R,9bS)-12-(cyclopropylmethyl)-3a,8-dihydroxy-N-(pyridin-3-ylmethyl)-1,2,3,3a,4,5-hexahydro-4,9b-(epimino-ethano)cyclopenta[a]naphthalene-2-carboxamide]
Emax [3]: 4.5%
EC50 ([3]; bound given in μM): > 20 µM
